Data set [1] has as its target T1, human melatonin 2 receptors (human MT2 receptors) (Homo sapiens, UniProt P49286).
T1 construct: expressed in transfected cells; membrane fraction
T1 sequence (P49286 1-362): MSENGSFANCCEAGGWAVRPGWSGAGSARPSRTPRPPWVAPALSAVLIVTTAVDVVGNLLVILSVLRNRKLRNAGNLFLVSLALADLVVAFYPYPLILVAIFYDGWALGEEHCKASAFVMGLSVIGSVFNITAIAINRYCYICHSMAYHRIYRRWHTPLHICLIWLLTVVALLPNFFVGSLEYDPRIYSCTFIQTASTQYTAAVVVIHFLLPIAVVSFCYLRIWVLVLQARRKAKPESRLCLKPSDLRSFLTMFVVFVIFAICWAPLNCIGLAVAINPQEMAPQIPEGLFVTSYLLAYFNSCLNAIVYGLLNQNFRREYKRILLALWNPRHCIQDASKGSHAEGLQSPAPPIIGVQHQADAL
As to the kind of experiment: Melatonin receptor binding inhibitory test, 2-[125I] Iodomelatonin, MT2. The settings on record: membrane fraction of CHO-hMT2 cells, 25° C. for 2.5 hr, read-out: binding inhibitory activity as IC50 value for MT2.

The target of data set [2] is T2, human melatonin 1 receptors (human MT1 receptors) (Homo sapiens, UniProt P48039).
T2 construct: expressed in transfected cells; membrane fraction
As to the kind of experiment: Melatonin receptor binding inhibitory test, 2-[125I] Iodomelatonin, MT1. The settings on record: membrane fraction of CHO-hMelR7 cells, 25° C. for 2.5 hr, read-out: binding inhibitory activity as IC50 value for MT1.

As a reminder, the IC50 is the concentration that inhibits the measured activity by half. By melting point is commonly meant the temperature, or range, at which the solid turns liquid.

Structures are written as SMILES.

T2 sequence (P48039 whole entry): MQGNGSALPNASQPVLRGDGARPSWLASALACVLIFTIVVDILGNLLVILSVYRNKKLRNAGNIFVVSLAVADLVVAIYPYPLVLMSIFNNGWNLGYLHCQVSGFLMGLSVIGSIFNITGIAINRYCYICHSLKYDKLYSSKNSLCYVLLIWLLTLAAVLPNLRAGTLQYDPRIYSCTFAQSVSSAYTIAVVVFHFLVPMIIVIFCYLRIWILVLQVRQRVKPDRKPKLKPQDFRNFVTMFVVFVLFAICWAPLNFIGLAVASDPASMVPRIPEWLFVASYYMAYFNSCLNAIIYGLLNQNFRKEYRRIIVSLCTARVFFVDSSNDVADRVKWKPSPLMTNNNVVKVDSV

Compound `CCC(=O)NCC1CC1c1cccc2nc(C)cn12` (stereo not drawn) [Example 53, N-{[2-(2-methylimidazo[1,2-a]pyridin-5-yl)cyclopropyl]methyl}propanamide] registered a melting point of 88 to 90 °C. The IC50 in data set [1] was not above 100 nM. For the same compound, in data set [2], the IC50 is not above 100 nM.

On to `CC(=O)NCC1CC1c1cccc2nc(C)nn12` (stereo not drawn) [Example 56, N-{[2-(2-methyl[1,2,4]triazolo[1,5-a]pyridin-5-yl)cyclopropyl]methyl}acetamide], for which the melting point fell in the range of 124 to 126 °C. In data set [1], the IC50 was not above 100 nM. Also, the IC50 in data set [2] was not above 100 nM.

Consider `CCC(=O)NCC1CC1c1cccc2nc(C)nn12` (stereo not drawn) [Example 57, N-{[2-(2-methyl[1,2,4]triazolo[1,5-a]pyridin-5-yl)cyclopropyl]methyl}propanamide], for which the melting point was 118 to 119 °C. Further, the IC50 in data set [1] was not above 100 nM. Further, in data set [2], the IC50 is not above 100 nM.

`CC(=O)NCC1CC1c1cccc2nc(C)sc12` (stereo not drawn) [Example 58, N-{[2-(2-methyl-1,3-benzothiazol-7-yl)cyclopropyl]methyl}acetamide] registered a melting point of 96 to 98 °C. In data set [1], the IC50 was not above 100 nM. The IC50 in data set [2] is not above 100 nM.

As to `CCC(=O)NCC1CC1c1cccc2nc(C)sc12` (stereo not drawn) [Example 59, N-{[2-(2-methyl-1,3-benzothiazol-7-yl)cyclopropyl]methyl}propanamide], the melting point lay in the range of 59 to 61 °C. In data set [1], the IC50 is not above 100 nM. Also, in data set [2], the IC50 was not above 100 nM.

For the compound `CC(=O)NCC1CC1c1cccc2nnsc12` (stereo not drawn) [Example 60, N-{[2-(1,2,3-benzothiadiazol-7-yl)cyclopropyl]methyl}acetamide], the melting point fell in the range of 81 to 82 °C. Also, the IC50 in data set [1] was not above 100 nM. Besides, the IC50 in data set [2] was not above 100 nM.

As to `CCC(=O)NCC1CC1c1cccc2nnsc12` (stereo not drawn) [Example 61, N-{[2-(1,2,3-benzothiadiazol-7-yl)cyclopropyl]methyl}propanamide], the melting point was 67 to 69 °C. Also, the IC50 in data set [1] is not above 100 nM. Further, the IC50 in data set [2] is not above 100 nM.

`CC(=O)NCC1CC1c1cccc2nscc12` (stereo not drawn) [Example 62, N-{[2-(2,1-benzisothiazol-4-yl)cyclopropyl]methyl}acetamide] came in with a melting point of 96 to 97 °C. The IC50 in data set [1] is not above 100 nM. For the same compound, the IC50 in data set [2] was not above 100 nM.

As to `CCC(=O)NCC1CC1c1cccc2nscc12` (stereo not drawn) [Example 63, N-{[2-(2,1-benzisothiazol-4-yl)cyclopropyl]methyl}propanamide], the melting point was in the range of 84 to 86 °C. In addition, in data set [1], the IC50 is not above 100 nM. Also, the IC50 in data set [2] was not above 100 nM.

For the origin of these results see US8110585B2, “Bicyclic compound and pharmaceutical use thereof” (Takeda Pharmaceutical Company Limited, priority 2007, dated 2012).
